According to US11905273B2, “Inhibitors for the B-catenin/B-cell lymphoma 9 (BCL9) protein-protein interaction” (H. LEE MOFFITT CANCER CENTER AND RESEARCH INSTITUTE, INC., priority 2017, dated 2024):
Where a name gives a salt, the structure may show the parent alone. Read-outs that look alike come from different tables or passages of the source.

Legend:
[1] = system: TOPFlash luciferase reporter (three wild-type Tcf binding sites) in SW480; assay: Wnt-responsive TOPFlash luciferase reporter assay, SW480; type: cell-based; conditions: 24 h treatment, mean ± SD (n = 3)
Experimental: (§1) Cell transfection and luciferase assay. FuGENE6(E269A, Promega) 96 well plate format was used for the transfection of HEK293 and SW480 cells according to the manufacturer's instruction. HEK293 cells were co-transfected with 45 ng of TOPFlash reporter gene, 135 ng pc DNA3.1-β-catenin, and 20 ng of pCMV-RL normalization reporter gene. SW480 cells were co-transfected with 60 ng of the TOPFlash or FOPFlash reporter gene and 40 ng of pCMV-RL, normalization reporter. Cells were cultured in DMEM and 10% FBS at 37° C. for 24 h, and different concentrations of inhibitors or DMSO was added After 24 h, the luciferase reporter activity was measured using the Dual-Glo system (E2940, Promega). Normalized luciferase activity in response to the treatment with 1 and 2 was compared with that obtained from the cells treated with DMSO. Experiments were performed in triplicate.

MDA-MB-231 = assay: MTs cancer cell growth inhibition assay, MDA-MB-231; type: cell-based; conditions: Wnt/β-catenin-hyperactive, 72 h, mean ± SD (n = 3)
Experimental: (§2) MTs Cell Viability Assay. Colorectal cancer cell lines, SW480 and HCT116, and triple-negative breast cancer cell line MDA-MB-231 were seeded in 96-well plates at 4=10^3 cells/well, maintained overnight at 37°C., and incubated in the presence of 1 and 2 at various concentrations. Cell viability was monitored after 72 h using a freshly prepared mixture of 1 part phenazine methosulfate (PMS, Sigma) solution (0.92 mg/mL) and 19 parts 3-(4,5-dimethylthiazol-2-yl)-5-(3-carboxymethoxyphenyl)-2-(4-sulfophenyl)-2H-tetrazolium (MTs, Promega) solution (2 mg/mL). Cells were incubated in 10 μL of this solution at 37° C. for 3 h, and A490 was measured. […] Experiments were performed in triplicate.

β-catenin/BCL9 = β-catenin/BCL9 (Homo sapiens (Human), UniProt P35222); assay: AlphaScreen competitive inhibition assay of the β-catenin/BCL9 interaction; type: binding; conditions: read-out: Ki ± SD β-catenin/BCL9
Experimental: AlphaScreen Assays. All experiments were performed in shite opaque 384-well plates from PerkinElmer (Waltham, MA) with an assay buffer of 25 mM HEPES (pH=7.4), 100 Mm nAcL, 0.1% BSA, and 0.01% Triton X-100. All sample signals were read on a excitation wavelength was set at 680 nm and emission at 570 nm. All of the final reaction volumes were set to 25 μL. In the cross-titration experiments of the wild-type β-catenin//wild-ty-e BCL9 interaction, N-terminally biotinlyated BCL9 (from 0 to 60 nM) and C-terminally His6-tagged μcatenin (2.5, 5, 10, 20, 40, and 80 nM) were titrated in 20 μg/mL) were added. The mixture was then covered black and incubated at 4° C. for 1 h before detection. All addition and incubation was made under subdued lighting conditions due to the photosensitivity of the beads. The data were analyzed by nonlinear least-square analyses using GraphPad Prism 5.0. Each experiment was repeated three times, and the results were expressed as mean ±standard deviation. The competitive binding experiments were performed to determine the apparent Kd values. The rule of the competitive binding experiments for associating the IC50 value with the Kd value are: (1) the expected Kd value should be 10 times higher than the concentration of either tested protein: (2) the concentrations of both tested proteins should be lower than the binding capacities of their respective beads; and (3) the concentration of the target protein (His6-tagged β-catenin) should be 10 times lower than that of the ligand protein (biotinylated BCL9). […] The donor and acceptor beads were added to a final concentration of 10 μg/mL in 25 μL assay buffer. The mixture was covered black and incubated for 1 h at 4° C. before detection. The IC50 values, which sere also the apparent Kd values from the AlphaScreen assay, were determined by nonlinear least-square analyses using GraphPad Prism 5.0. Each experiment was repeated three times, and the results were expressed as mean ±standard deviation.
For the β-catenin/BCL9 competitive inhibition assay, 5 nM of biotinylated BCL9 and 40 nM of His6-tagged β-catenin were incubated in assay buffer at 4° C. for 30 min. Different concentrations of the tested inhibitor were added and incubated in 20 μL assay buffer at 4°C. for another 1 h. All of the above assay plates were covered and gently mixed on an orbital shaker. The donor and acceptor beads were then added to the plates to a final concentration of 10 μg/mL in 25 μL assay buffer. The mixture was incubated for 1 h at 4° C. before detection. The IC50 value was determined by nonlinear least-square analysis of GraphPad Prism 5.0. The inhibition constant (Ki) values were derived from the […] values using a method reported by Nikolovska-Coleska et al.^26. […] The results were expressed as mean ±standard deviation.

SW480 = assay: MTs cancer cell growth inhibition assay, SW480; type: cell-based; conditions: Wnt/β-catenin-hyperactive, 72 h, mean ± SD (n = 3)
Experimental: as §2

HCT116 = assay: MTs cancer cell growth inhibition assay, HCT116; type: cell-based; conditions: Wnt/β-catenin-hyperactive, 72 h, mean ± SD (n = 3)
Experimental: as §2

A549 = assay: MTs growth inhibition assay, A549; type: cell-based; conditions: Wnt-latent, mean ± SD (n = 3)
[2] = system: TOPFlash luciferase reporter (three wild-type Tcf binding sites) in β-catenin-activated HEK239; assay: Wnt-responsive TOPFlash luciferase reporter assay, β-catenin-activated HEK293; type: cell-based; conditions: 24 h treatment, mean ± SD (n = 3)
Experimental: as §1

[3] = AlphaScreen, mean ± standard deviation (n = 3), Ki derived from IC50

Sequence of β-catenin/BCL9 (P35222 whole entry): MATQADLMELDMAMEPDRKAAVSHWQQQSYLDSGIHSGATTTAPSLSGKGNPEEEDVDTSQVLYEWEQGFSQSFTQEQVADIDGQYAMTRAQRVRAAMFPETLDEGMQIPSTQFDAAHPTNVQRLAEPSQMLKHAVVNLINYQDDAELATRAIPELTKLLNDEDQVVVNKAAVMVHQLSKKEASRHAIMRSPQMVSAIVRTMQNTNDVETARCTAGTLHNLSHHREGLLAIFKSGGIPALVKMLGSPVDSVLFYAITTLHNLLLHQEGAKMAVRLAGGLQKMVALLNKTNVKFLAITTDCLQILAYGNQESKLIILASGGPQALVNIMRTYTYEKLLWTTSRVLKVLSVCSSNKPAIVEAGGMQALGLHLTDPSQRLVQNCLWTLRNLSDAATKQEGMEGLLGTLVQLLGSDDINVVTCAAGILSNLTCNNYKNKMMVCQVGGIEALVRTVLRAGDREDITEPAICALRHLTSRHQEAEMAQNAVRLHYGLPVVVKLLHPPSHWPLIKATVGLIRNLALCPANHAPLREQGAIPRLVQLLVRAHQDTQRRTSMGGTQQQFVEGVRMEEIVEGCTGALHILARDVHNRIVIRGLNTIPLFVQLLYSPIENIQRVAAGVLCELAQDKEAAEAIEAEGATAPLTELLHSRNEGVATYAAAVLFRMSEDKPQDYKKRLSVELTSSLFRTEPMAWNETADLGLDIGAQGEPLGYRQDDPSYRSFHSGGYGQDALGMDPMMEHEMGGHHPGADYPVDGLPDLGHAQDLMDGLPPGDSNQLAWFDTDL

With Fc1ccc(-c2cc(-c3ccc4cc(O[C@H]5CCNC5)c(-c5ccc(F)c(F)c5)cc4n3)ccc2O[C@H]2CCNC2)cc1 [Compound 1, 7-(3,4-difluorophenyl)-2-(4′-fluoro-6-((S)-pyrrolidin-3-yloxy)-[1,1′-biphenyl]-3-yl)-6-((S)-pyrrolidin-3-yloxy)quinoline dihydrochloride] the IC50 ([1]; Homo sapiens, SW480) was 12 ± 1.5 µM, the IC50 (MDA-MB-231; Homo sapiens, MDA-MB-231) was 15 ± 6.1 µM and the Ki (β-catenin/BCL9) was 8 ± 1.8 µM. It also gave an IC50 (SW480; Homo sapiens, SW480) of 3.6 ± 1.9 µM, an IC50 (HCT116; Homo sapiens, HCT-116) of 9.6 ± 2.5 µM and an IC50 (A549; Homo sapiens, A549) of 23 ± 4.4 µM. The IC50 ([2]; HEK239) was 26 ± 3.1 µM.
Compound Fc1ccc(-c2cc(-c3cnc4cc(O[C@H]5CCNC5)c(-c5ccc(F)c(F)c5)cc4c3)ccc2O[C@H]2CCNC2)cc1 [Compound 2, 6-(3.4-difluorophenyl)-3-(4′-fluoro-6-((S)-pyrrolidin-3-yloxy)-[1,1′-biphenyl]-3-yl)-7-((S)-pyrrolidin-3-yloxy)quinoline dihydrochloride] has an IC50 ([1]; Homo sapiens, SW480) of 7.9 ± 1.4 µM, an IC50 (MDA-MB-231; Homo sapiens, MDA-MB-231) of 3.1 ± 1.2 µM and an IC50 (SW480; Homo sapiens, SW480) of 1.7 ± 0.9 µM. The IC50 (HCT116; Homo sapiens, HCT-116) was 2.2 ± 1 µM, the IC50 (A549; Homo sapiens, A549) was 7.5 ± 2.9 µM and the IC50 ([2]; HEK239) was 14 ± 1.5 µM.
Compound O=C(Nc1ccc(O[C@H]2CCNC2)c(-c2ccc(F)cc2)c1)c1ccc(O[C@H]2CCNC2)c(C2CCCCC2)c1 [Compound 3, 3-cyclohexyl-N-(4′-fluoro-6-(((S)-pyrrolidin-3-yl)oxy)-[1,1′-biphenyl]-3-4-(((S)-pyrrolidin-3-yl)oxy)benzamidedihydrochloride] has a Ki (β-catenin/BCL9; [3]) of 14 ± 1.6 µM, an IC50 (SW480) of 6.6 ± 2.7 µM and an IC50 (HCT116) of 3.8 ± 1.5 µM. For the same compound, the IC50 (A549) was 3.8 ± 1.5 µM.
O=C(Nc1ccc(O[C@H]2CCNC2)c(-c2ccc(F)cc2)c1)c1ccc(O[C@H]2CCNC2)c(C2=CCCCC2)c1 [Compound 4, N-(4^+-fluoro-6-(((S)-pyrrolidin-3-yl)oxy)-[1,1′-biphenyl]-6-(((S)-pyrrolidin-3-yl)oxy)-2′,3′,4′,5′-tetrahydro-[1.1′-biphenyl]-3-carboxamidedihydrochloride] gave an IC50 [1] of 8.7 ± 2.3 µM, an IC50 (MDA-MB-231) of 3.4 ± 1.6 µM and a Ki (β-catenin/BCL9; [3]) of 7.1 ± 2.5 µM. It also gave an IC50 (SW480) of 3.7 ± 2 µM, an IC50 (HCT116) of 6.9 ± 3.2 µM and an IC50 (A549) of 8.9 ± 2.7 µM.
Compound O=C(Nc1ccc(O[C@H]2CCNC2)c(-c2ccc(F)cc2)c1)c1ccc(O[C@H]2CCNC2)c(C2CCC(C(F)(F)F)CC2)c1 (stereo partly drawn) [Compound 5, N-(-4′-fluoro-6-(((S)-pyrrolidin-3-yl)oxy)-[1,1′-biphenyl]-3-yl)-4-(((S)-pyrrolidin-3-yl)oxy)-3-(4-(trifluoromethyl)cyclohexyl) benzamide dilydrocholoride] has an IC50 [1] of 10 ± 3.3 µM, an IC50 (MDA-MB-231) of 2.3 ± 1 µM and a Ki (β-catenin/BCL9; [3]) of 4.2 ± 2.3 µM. The IC50 (SW480) was 3.6 ± 2.7 µM, the IC50 (HCT116) was 5.6 ± 2.7 µM and the IC50 (A549) was 4.8 ± 2.4 µM. The IC50 [2] was 10 ± 3.2 µM.
